Results from the supplement of paper PMC6045584.
± gives the standard deviation of the averaged measurements.

What was measured:
MDV3100 = compound: CNC(=O)c1ccc(N2C(=S)N(c3ccc(C#N)c(C(F)(F)F)c3)C(=O)C2(C)C)cc1F [MDV3100]; assay: area under dose-response curve of surviving fraction (unscaled, Aref=0) (surviving fraction x log10(nM)); higher = more resistant; conditions: exposure time: 5 days; dose range 0.5-1000 nM
In short: (§1)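 Inhibitor was applied to tumour cell lines at eight concentrations (0.5 to 1000 nM) for five days in 384-well plates. Luminescence from CellTiter-Glo, scaled to DMSO-only wells, gave surviving fractions in three screens per line, and these were fitted by 3-parameter logistic regression with the drc R package. The area under the curve is an unscaled activity area. Aref was 0, and dose was on a log10 scale.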

CANERTINIB = compound: C=CC(=O)Nc1cc2c(Nc3ccc(F)c(Cl)c3)ncnc2cc1OCCCN1CCOCC1 [CANERTINIB]; assay: as above; conditions: exposure time: 5 days; dose range 0.5-1000 nM
In short: as §1

SAPACITABINE [1] = compound: T1, CCCCCCCCCCCCCCCC(=O)Nc1ccn([C@@H]2O[C@H](CO)[C@@H](O)[C@@H]2C#N)c(=O)n1 [SAPACITABINE]; assay: as above; conditions: exposure time: 5 days; dose range 0.5-1000 nM
In short: as §1

BI-2536 = compound: CC[C@@H]1C(=O)N(C)c2cnc(Nc3ccc(C(=O)NC4CCN(C)CC4)cc3OC)nc2N1C1CCCC1 [BI-2536]; assay: as above; conditions: exposure time: 5 days; dose range 0.5-1000 nM
In short: as §1

AFATINIB = compound: CN(C)C/C=C/C(=O)Nc1cc2c(Nc3ccc(F)c(Cl)c3)ncnc2cc1O[C@H]1CCOC1 [AFATINIB]; assay: as above; conditions: exposure time: 5 days; dose range 0.5-1000 nM
In short: as §1

[2] = compound: Cn1cc(C2=Nc3cc(NC(=O)C(N)C4CCCCC4)cc4c3C2=CNNC4=O)cn1; assay: as above; conditions: exposure time: 5 days; dose range 0.5-1000 nM
In short: as §1

TIOGUANINE = compound: Nc1nc2[nH]cnc2c(=S)[nH]1 [TIOGUANINE]; assay: as above; conditions: exposure time: 5 days; dose range 0.5-1000 nM
In short: as §1

SNX-5422 = compound: CC1(C)CC(=O)c2c(C(F)(F)F)nn(-c3ccc(C(N)=O)c(N[C@H]4CC[C@H](OC(=O)CN)CC4)c3)c2C1 [SNX-5422]; assay: as above; conditions: exposure time: 5 days; dose range 0.5-1000 nM
In short: as §1

SAPACITABINE [3] = compound: T1, SAPACITABINE; assay: surviving fraction relative to DMSO-only wells; higher = less growth inhibition; conditions: exposure time: 5 days
In short: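 Log-phase tumour cell lines were seeded at 250–500 cells per well in 384-well plates. After 24 hours they were exposed continuously for five days to inhibitors at 0.5, 1, 5, 10, 50, 100, 500 and 1000 nM. Viability was read by CellTiter-Glo luminescence after 10 minutes at room temperature, and surviving fraction is luminescence normalised to the median of DMSO-only wells. Each line was screened three times and kept only if replicate Pearson r >0.7 and median Z' >0.3.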

Test System	area under dose-response curve (MDV3100)	area under dose-response curve (CANERTINIB)	area under dose-response curve (SAPACITABINE [1])	area under dose-response curve (BI-2536)	area under dose-response curve (AFATINIB)	area under dose-response curve [2]	area under dose-response curve (TIOGUANINE)	area under dose-response curve (SNX-5422)	surviving fraction (SAPACITABINE [3]; 0.5 nM)	surviving fraction (SAPACITABINE [3]; 1 nM)	surviving fraction (SAPACITABINE [3]; 5 nM)	surviving fraction (SAPACITABINE [3]; 10 nM)	surviving fraction (SAPACITABINE [3]; 50 nM)	surviving fraction (SAPACITABINE [3]; 100 nM)	surviving fraction (SAPACITABINE [3]; 500 nM)	surviving fraction (SAPACITABINE [3]; 1000 nM)
SYO1 SYNOVIAL	2.45	2.48	1.23	0.562	2.96	1.84	2.43	1.47	0.83 ± 0.07	0.689 ± 0.019	0.737 ± 0.016	0.343 ± 0.029	0.48 ± 0.022	0.269 ± 0.0028	0.0989 ± 0.0067	0.0679 ± 0.0022
HCC1806 BREAST	3.52	2.12	1.25	0.671	2.28	2.07	3.5	1.85	0.698 ± 0.06	0.673 ± 0.062	0.652 ± 0.048	0.462 ± 0.067	0.259 ± 0.028	0.167 ± 0.0089	0.0637 ± 0.0081	0.061 ± 0.007
MDAMB468 BREAST	3.41	2.41	2.27	1.06	2.26	2.58	3.52	1.94	0.811 ± 0.012	0.862 ± 0.087	0.88 ± 0.069	0.847 ± 0.086	0.792 ± 0.03	0.56 ± 0.07	0.204 ± 0.018	0.193 ± 0.028
HELA CERVIX	3.16	3.11	2.94	1	3.69	3.79	3.36	2.79	0.847 ± 0.031	0.843 ± 0.033	0.837 ± 0.027	0.819 ± 0.018	0.954 ± 0.064	1.02 ± 0.013	0.826 ± 0.066	0.794 ± 0.035
SG32 HEADNECK	3.4	2.35	1.91	1.44	2.94	2.65	3.59	1.98	0.715 ± 0.068	0.614 ± 0.17	0.907 ± 0.12	0.429 ± 0.12	0.707 ± 0.11	0.487 ± 0.065	0.447 ± 0.082	0.289 ± 0.078
